Assay results published in patent US11919908B2, “Substituted pyrrolo[2,3-d]pyrimidine compounds as JAK2 V617F inhibitors” (Incyte Corporation, priority 2020, dated 2024).

What was measured:
[1] = target: T1, pseudo-kinase domain (JH2) of human Wild Type JAK2 (Homo sapiens, UniProt O60674, F794H/W659A/W777A); assay: JAK2 LanthaScreen JH2-WT Binding Assay; conditions: 50 nM Fluorescent JAK2-JH2 Tracer, 1 hour at 25° C.
T1 construct: pseudo-kinase domain (JH2, amino-acids 536-812 with 3 surface mutations W659A, W777A, F794H); His (C); purchased BPS Bioscience 79463; host or cells: baculovirus expression system
Experimental: (§1) Example B. JAK2 LanthaScreen JH2-WT Binding Assay JAK2 JH2-WT binding assay utilizes pseudo-kinase domain (JH2, amino-acids 536-812 with 3 surface mutations […]) of human Wild Type JAK2 expressed as C-terminal His-Avi-tagged, biotinylated protein in a baculovirus expression system (BPS Bioscience, Catalog #79463). The assay was conducted in black 384-well polystyrene plates in a final reaction volume of 20 μL. JAK2 JH2-WT (0.145 nM) was incubated with compounds (100 nL serially diluted in DMSO) in the presence of 50 nM Fluorescent JAK2-JH2 Tracer (MedChem Express Catalog #HY-102055) and 0.25 nM Streptavidin-Tb cryptate (Cisbio Part #610SATLB) in assay buffer (50 mM Tris, pH=7.5, 10 mM MgCl2, 0.01% Brij-35, 0.1% BSA, 1 mM EGTA, 5% Glycerol and 5 mM DTT). Non-specific binding was accessed in the presence of 2 mM ATP. After incubation for 1 hour at 25° C., LanthaScreen signals were read on a PHERAstar FS plate reader (BMG LABTECH). Data was analyzed with IDBS XLfit and GraphPad Prism 5.0 software using a four parameter dose response curve to determine IC50 for each compound.

[2] = target: T2, catalytic domain (JH1) of human JAK2 (Homo sapiens, UniProt O60674); assay: JAK2 LanthaScreen JH1 Binding Assay; conditions: 50 nM Fluorescent JAK2-JH1 Tracer, 2 hours at 25° C.
T2 construct: catalytic domain (JH1, amino acids 826-1132) of human JAK2; FLAG (N); purchased Carna Biosciences 08-445-20N; host or cells: baculovirus expression system
Experimental: Example A. JAK2 LanthaScreen […] Binding Assay JAK2 JH1 binding assay utilizes catalytic domain (JH1, amino acids 826-1132) of human JAK2 expressed as N-terminal FLAG-tagged, biotinylated protein in a baculovirus expression system (Carna Biosciences, Product #08-445-20N). The assay was conducted in black 384-well polystyrene plates in a final reaction volume of 20 μL. JAK2 JH1 (1.5 nM) was incubated with compounds (100 nL serially diluted in DMSO) in the presence of 50 nM Fluorescent JAK2-JH1 Tracer and 0.5 nM Streptavidin-Tb cryptate (Cisbio Part #610SATLB) in assay buffer (50 mM Tris, pH=7.5, 10 mM MgCl2, 0.01% Brij-35, 0.1% BSA, 1 mM EGTA, 5% Glycerol and 5 mM DTT). Non-specific binding was accessed in the presence of 2 mM ATP. After incubation for 2 hours at 25° C., LanthaScreen signals were read on a PHERAstar FS plate reader (BMG LABTECH). Data was analyzed with IDBS XLfit and GraphPad Prism 5.0 software using a four parameter dose response curve to determine IC50 for each compound.

[3] = target: T3, pseudo-kinase domain (JH2) of human V617F mutant JAK2 (Homo sapiens, UniProt O60674, F794H/V617F/W659A/W777A); assay: JAK2 LanthaScreen JH2-V617F Binding Assay; conditions: 50 nM Fluorescent JAK2-JH2 Tracer, 1 hour at 25° C.
T3 construct: pseudo-kinase domain (JH2, amino-acids 536-812 with 3 surface mutations W659A, W777A, F794H); His (C); purchased BPS Bioscience 79498; host or cells: baculovirus expression system
Experimental: as §1, with “C.” for “B.”, “JH2-V617F” for “JH2-WT”, “V617F mutant” for “Wild Type”, “#79498).” for “#79463).”, “JH2-V617F (0.26” for “JH2-WT (0.145”

T2 sequence (O60674 826-1132): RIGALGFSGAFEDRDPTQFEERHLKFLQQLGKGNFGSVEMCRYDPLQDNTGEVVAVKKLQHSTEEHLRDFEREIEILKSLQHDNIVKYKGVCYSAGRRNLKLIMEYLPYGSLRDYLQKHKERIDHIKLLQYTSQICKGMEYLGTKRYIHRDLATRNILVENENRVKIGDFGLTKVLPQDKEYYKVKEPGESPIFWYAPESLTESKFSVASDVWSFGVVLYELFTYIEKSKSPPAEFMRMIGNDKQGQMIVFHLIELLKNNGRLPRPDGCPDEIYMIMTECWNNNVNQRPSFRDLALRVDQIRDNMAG
T1 sequence (O60674 536-812 W659A/W777A/F794H): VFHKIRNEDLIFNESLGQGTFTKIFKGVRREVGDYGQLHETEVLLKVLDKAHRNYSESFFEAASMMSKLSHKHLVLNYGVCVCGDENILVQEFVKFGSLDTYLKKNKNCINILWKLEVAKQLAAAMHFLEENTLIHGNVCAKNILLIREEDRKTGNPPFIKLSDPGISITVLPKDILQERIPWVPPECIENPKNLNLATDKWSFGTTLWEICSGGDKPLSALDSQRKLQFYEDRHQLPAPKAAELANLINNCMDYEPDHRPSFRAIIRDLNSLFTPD
T3 sequence (O60674 536-812 V617F/W659A/W777A/F794H): as the sequence (O60674 536-812 W659A/W777A/F794H) above, with V82F counted along it

| Compound | IC50 [1] | IC50 [2] | IC50 [3] |
| --- | --- | --- | --- |
| COc1ncccc1-c1c(-c2ccc(S(=O)(=O)N(C)C)cc2)[nH]c2nc(N)[nH]c(=O)c12 [Example 28, 4-(2-Amino-5-(2-methoxy-pyridin-3-yl)-4-oxo-4,7-dihydro-3H-pyrrolo[2,3-d]pyrimidin-6-yl)-N,N-dimethylbenzene sulfonamide] | 1000 to 2500 nM | > 2500 nM | 1000 to 2500 nM |
| CN(C)S(=O)(=O)c1ccc(-c2[nH]c3nc(N)[nH]c(=O)c3c2-c2cccc3cn[nH]c23)cc1 [Example 20, 4-(2-Amino-5-(1H-indazol-7-yl)-4-oxo-4,7-dihydro-3H-pyrrolo[2,3-d]pyrimidin-6-yl)-N,N-dimethylbenzene sulfonamide] | > 2500 nM | > 2500 nM | > 2500 nM |
| CN(C)S(=O)(=O)c1ccc(-c2[nH]c3nc(N)[nH]c(=O)c3c2-c2cnn(Cc3cccc(C(=O)O)c3)c2)cc1 [Example 51, 3-((4-(2-amino-6-(4-(N,N-dimethylsulfamoyl)phenyl)-4-oxo-4,7-dihydro-3H-pyrrolo[2,3-d]pyrimidin-5-yl)-1H-pyrazol-1-yl)methyl)benzoic acid] | 500 to 1000 nM | 1000 to 2500 nM | 500 to 1000 nM |
| CN(C)S(=O)(=O)c1ccc(-c2[nH]c3nc(N)[nH]c(=O)c3c2-c2cccc3c2OC(F)(F)O3)cc1 [Example 12, 4-(2-Amino-5-(2,2-difluorobenzo[d] [1,3]dioxol-4-yl)-4-oxo-4,7-dihydro-3H-pyrrolo[2,3-d]pyrimidin-6-yl)-N,N-dimethylbenzene sulfonamide] | > 2500 nM | 1000 to 2500 nM | > 2500 nM |
| COc1ccccc1-c1c(-c2ccc(C(=O)N3CCOCC3)cc2)[nH]c2nc(N)[nH]c(=O)c12 [Example 54, 2-Amino-5-(2-methoxyphenyl)-6-(4-(morpholine-4-carbonyl)phenyl)-3,7-dihydro-4H-pyrrolo[2,3-d]pyrimidin-4-one] | 500 to 1000 nM | > 2500 nM | 500 to 1000 nM |
| CN1CCOc2cc(-c3c(-c4ccc(S(=O)(=O)N(C)C)cc4)[nH]c4nc(N)[nH]c(=O)c34)ccc21 [Example 22, 4-(2-Amino-5-(4-methyl-3,4-dihydro-2H-benzo[b] [1,4]oxazin-7-yl)-4-oxo-4,7-dihydro-3H-pyrrolo [2,3-d]pyrimidin-6-yl)-N,N-dimethylbenzene sulfonamide] | 500 to 1000 nM | 1000 to 2500 nM | 500 to 1000 nM |
| COc1ccccc1-c1c(-c2ccc(S(C)(=O)=O)cc2)[nH]c2nc(N)[nH]c(=O)c12 [Example 62, 2-Amino-5-(2-methoxyphenyl)-6-(4-(methylsulfonyl)phenyl)-3,7-dihydro-4H-pyrrolo [2,3-d]pyrimidin-4-one] | 1000 to 2500 nM | > 2500 nM | 500 to 1000 nM |
| CN(C)S(=O)(=O)c1ccc(-c2[nH]c3nc(N)[nH]c(=O)c3c2-c2ccnn2C)cc1 [Example 46, 4-(2-Amino-5-(1-methyl-1H-pyrazol-5-yl)-4-oxo-4,7-dihydro-3H-pyrrolo[2,3-d]pyrimidin-6-yl)-N,N-dimethylbenzenesulfonamide] | > 2500 nM | > 2500 nM | > 2500 nM |
| CCOc1ccccc1-c1c(-c2ccc(S(=O)(=O)N(C)C)cc2)[nH]c2nc(N)[nH]c(=O)c12 [Example 70, 4-(2-Amino-5-(2-ethoxyphenyl)-4-oxo-4,7-dihydro-3H-pyrrolo[2,3-d]pyrimidin-6-yl)-N,N-dimethylbenzenesulfonamide] | 1000 to 2500 nM | > 2500 nM | 1000 to 2500 nM |
| Nc1nc2[nH]c(-c3ccccc3)c(-c3ccccc3OC(F)F)c2c(=O)[nH]1 [Example 1, 2-Amino-5-(2-(difluoromethoxy)phenyl)-6-phenyl-3,7-dihydro-4H-pyrrolo[2,3-d]pyrimidin-4-one] | > 2500 nM | > 2500 nM | > 2500 nM |
| CN(C)S(=O)(=O)c1ccc(-c2[nH]c3nc(N)[nH]c(=O)c3c2-c2cnn(Cc3ccc(C#N)cc3)c2)cc1 [Example 31, 4-(2-Amino-5-(1-(4-cyanobenzyl)-1H-pyrazol-4-yl)-4-oxo-4,7-dihydro-3H-pyrrolo[2,3-d]pyrimidin-6-yl)-N,N-dimethylbenzene sulfonamide] | 1000 to 2500 nM | 1000 to 2500 nM | 1000 to 2500 nM |
| CN(C)S(=O)(=O)c1ccc(-c2[nH]c3nc(N)[nH]c(=O)c3c2-c2cccc3c2OCCO3)cc1 [Example 7, 4-(2-Amino-5-(2,3-dihydrobenzo[b][1,4]dioxin-5-yl)-4-oxo-4,7-dihydro-3H-pyrrolo [2,3-d]pyrimidin-6-yl)-N,N-dimethylbenzene sulfonamide] | 500 to 1000 nM | > 2500 nM | 500 to 1000 nM |
| CN(C)S(=O)(=O)c1ccc(-c2[nH]c3nc(N)[nH]c(=O)c3c2-c2cccc(CN)c2)cc1 [Example 45, 4-(2-Amino-5-(3-(aminomethyl)phenyl)-4-oxo-4,7-dihydro-3H-pyrrolo[2,3-d]pyrimidin-6-yl)-N,N-dimethylbenzenesulfonamide] | 1000 to 2500 nM | > 2500 nM | > 2500 nM |

Now from value to compound:

| IC50 [1] | IC50 [2] | IC50 [3] | Compound |
| --- | --- | --- | --- |
| 100 to 500 nM | 1000 to 2500 nM | 100 to 500 nM | Cc1ccc(F)c(-c2c(-c3ccc(S(=O)(=O)N(C)C)cc3)[nH]c3nc(N)[nH]c(=O)c23)c1 [Example 69, 4-(2-Amino-5-(2-fluoro-5-methylphenyl)-4-oxo-4,7-dihydro-3H-pyrrolo[2,3-d]pyrimidin-6-yl)-N,N-dimethylbenzenesulfonamide] |
| 100 to 500 nM | 500 to 1000 nM | 100 to 500 nM | CN(C)S(=O)(=O)c1ccc(-c2[nH]c3nc(N)[nH]c(=O)c3c2-c2ccc(C(=O)O)cc2)cc1 [Example 35, 4-(2-amino-6-(4-(N,N-dimethylsulfamoyl)phenyl)-4-oxo-4,7-dihydro-3H-pyrrolo[2,3-d]pyrimidin-5-yl)benzoic acid] |
| 100 to 500 nM | > 2500 nM | 100 to 500 nM | COc1ccccc1-c1c(-c2ccc(CN3CCC(S(C)(=O)=O)CC3)cc2)[nH]c2nc(N)[nH]c(=O)c12 [Example 53] |
| 100 to 500 nM | 1000 to 2500 nM | 100 to 500 nM | CN(C)S(=O)(=O)c1ccc(-c2[nH]c3nc(N)[nH]c(=O)c3c2-c2ccc3c(c2)CCNC3=O)cc1 [Example 21, 4-(2-Amino-4-oxo-5-(1-oxo-1,2,3,4-tetrahydro-isoquinolin-6-yl)-4,7-dihydro-3H-pyrrolo[2,3-d]pyrimidin-6-yl)-N,N-dimethylbenzene sulfonamide] |
| 100 to 500 nM | 1000 to 2500 nM | 100 to 500 nM | CN(C)S(=O)(=O)c1ccc(-c2[nH]c3nc(N)[nH]c(=O)c3c2-c2ccc(S(C)(=O)=O)cc2)cc1 [Example 13, 4-(2-Amino-5-(4-(methylsulfonyl)phenyl)-4-oxo-4,7-dihydro-3H-pyrrolo[2,3-d]pyrimidin-6-yl)-N,N-dimethylbenzene sulfonamide] |
